Broadly, the IC50 is the midpoint of a concentration-inhibition curve.

What all share (assay type): functional, cell-based
One assay deals with A549. The assay is described as follows: Cytotoxicity against human A549 cells.
A further assay deals with P388. The assay is described as follows: Cytotoxicity against mouse P388 cells.
A further assay concerns HT-29. The assay is described as follows: Cytotoxicity against human HT-29 cells.

SMILES strings stand for the structures. Some results are limits rather than exact numbers.

Turning to `COc1cc([C@@H]2c3cc4c(cc3[C@H](OC)[C@@H](COC(C)=O)[C@@H]2COC(C)=O)OCO4)cc(OC)c1OC`, the IC50 in the assay with A549, in the assay with P388 and with HT-29 was 9.7 µM each time.
Consider `COc1cc([C@@H]2c3cc4c(cc3C=C3COC(=O)[C@H]32)OCO4)cc(OC)c1OC`, for which the IC50 was found to be 0.025 µM in the assay with A549, 0.013 µM in the assay on P388 and 0.025 µM with HT-29.
As to `COc1cc([C@@H]2c3cc4c(cc3[C@H](OC)[C@@H](COC(C)=O)[C@H]2COC(C)=O)OCO4)cc(OC)c1OC`, the IC50 is more than 38.8 µM in the assay on A549, 19.4 µM in the assay on P388 and 19.4 µM in the assay on HT-29.
As to `COc1cc([C@@H]2c3cc4c(cc3[C@H](OC)[C@@H](CO)[C@H]2CO)OCO4)cc(OC)c1OC`, the IC50 in the assay on A549 is 46.3 µM; in the assay with P388, 23.2 µM; in the assay with HT-29, 23.2 µM.
For the compound `COc1cc([C@@H]2c3cc4c(cc3[C@@H](Cl)[C@H]3COC(=O)[C@H]23)OCO4)cc(OC)c1OC`, the IC50 in the assay on A549 came out at 0.6 µM; in the assay on P388, 0.6 µM; with HT-29, 1.2 µM.
`COc1cc([C@@H]2c3cc4c(cc3[C@@H](OC)[C@@H](CO)[C@@H]2CO)OCO4)cc(OC)c1OC`: the IC50 in the assay on A549, in the assay on P388 and with HT-29 was 11.6 µM each time.
In the case of `COc1cc([C@@H]2c3cc4c(cc3[C@@H](OC)[C@H]3COC(=O)[C@H]23)OCO4)cc(OC)c1OC`, the IC50 in the assay with A549 was determined as 0.06 µM; in the assay on P388, 0.06 µM; in the assay on HT-29 it was 1.2 µM.
In the case of `COc1cc([C@@H]2c3cc4c(cc3[C@@H](OC)[C@@H](COC(C)=O)[C@H]2COC(C)=O)OCO4)cc(OC)c1OC`, the IC50 with A549, in the assay on P388 and with HT-29 was 9.7 µM each time.
Take `COc1cc([C@@H]2c3cc4c(cc3[C@H](OC)[C@H]3COC(=O)[C@@H]23)OCO4)cc(OC)c1OC`: the values for the IC50 in the assay on A549, in the assay with P388 and in the assay on HT-29 were 0.12 µM, 0.12 µM and 0.23 µM, respectively.
For the compound `COc1cc([C@@H]2c3cc4c(cc3[C@H](O)[C@H]3COC(=O)[C@@H]23)OCO4)cc(OC)c1OC` [AXL-1717], the IC50 in the assay with A549, with P388 and in the assay with HT-29 was 6 µM in each case.
In turn, `COc1cc([C@@H]2c3cc4c(cc3[C@H](O)[C@H]3COC(=O)[C@H]23)OCO4)cc(OC)c1OC` [PODOFILOX] came in with an IC50 with HT-29 of 0.0029 µM.
`COc1cc([C@@H]2c3cc4c(cc3[C@H](OC)[C@H]3COC(=O)[C@H]23)OCO4)cc(OC)c1OC`: the 50% inhibitory concentration (IC50) in the assay with A549, in the assay with P388 and in the assay on HT-29 was 0.06 µM in each case.
With `COc1cc([C@@H]2c3cc4c(cc3[C@@H](OC)[C@@H](COC(C)=O)[C@@H]2COC(C)=O)OCO4)cc(OC)c1OC`, the IC50 in the assay with A549, in the assay with P388 and in the assay with HT-29 was 9.7 µM each time.
As to `COc1cc([C@@H]2c3cc4c(cc3[C@@H](OC)[C@@H](CO)[C@H]2CO)OCO4)cc(OC)c1OC`, the concentration for half-maximal inhibition (IC50) with A549, in the assay on P388 and with HT-29 was 11.6 µM each time.
With `COc1cc([C@@H]2c3cc4c(cc3[C@@H](OC)[C@H]3COC(=O)[C@@H]23)OCO4)cc(OC)c1OC`, the half-inhibitory concentration (IC50) turned out to be 0.13 µM in the assay with A549, 0.1 µM in the assay on P388 and 0.06 µM in the assay with HT-29.
The matching figures for `COc1cc([C@@H]2c3cc4c(cc3[C@@H](O)[C@H]3COC(=O)[C@H]23)OCO4)cc(OC)c1OC` [EPIPODOPHYLLOTOXIN]: 0.06 µM, 0.06 µM and 0.06 µM.
